Source: article PMC6430730, “A short peptide potentially promotes the healing of skin wound” (Bioscience Reports, 2019)
Where a SMILES comes first, the peptide text is derived from it.

Experiments:
B. subtilis (ATCC 19659) = experiment: Antimicrobial activity assay (agar hole diffusion); format: cell-based, Bacillus subtilis; design: key: +: Possessing antimicrobial activity; -: Possessing no antimicrobial activity; conditions: Amp (1 mg/ml), 7 μl in agar hole, 16–18 h, 37°C
Experimental: (§1) The antimicrobial activity of OA-GL12 was performed based on our previous research. Briefly, fungal strain Candida albicans (ATCC 14053), Gram-positive bacterial strains Staphylococcus epidermidis (ATCC 12228), Staphylococcus haemolyticus (ATCC 29970), and Bacillus subtilis (ATCC 19659), Gram-negative bacterial strains Escherichia coli (ATCC 25922) were obtained from the Kunming Medical University. The microbes were cultivated in LB broth to OD600 = 0.8. A 10-μl aliquot of the bacteria was collected and added to fresh LB (10 ml) broth with 1% Type I agar (Sigma–Aldrich, St. Louis, MO, U.S.A.), and then poured into a 90-mm Petri dish. A micro hole was made after the agar was solidified, and a 7-μl aliquot of OA-GL12 (1 mM) was added to the hole. Petri dish was placed for 16–18 h at 37°C. As the symbol of antimicrobial activity, a clear zone appeared on the surface of the agar just like ampicillin (1 mg/ml), positive control, which represented the antimicrobial ability of OA-GL12.

[1] = tested on: S. epidermidis (ATCC 12228); experiment: Antimicrobial activity assay (agar hole diffusion); format: cell-based, Staphylococcus epidermidis; design: key: +: Possessing antimicrobial activity; -: Possessing no antimicrobial activity; conditions: Amp (1 mg/ml), 7 μl in agar hole, 16–18 h, 37°C
Experimental: as §1

[2] = tested on: S. haemolyticus (ATCC 29970); experiment: Antimicrobial activity assay (agar hole diffusion); format: cell-based, Staphylococcus haemolyticus; design: key: +: Possessing antimicrobial activity; -: Possessing no antimicrobial activity; conditions: Amp (1 mg/ml), 7 μl in agar hole, 16–18 h, 37°C
Experimental: as §1

C. albicans (ATCC 14053) = experiment: Antimicrobial activity assay (agar hole diffusion); format: cell-based, Candida albicans; design: key: +: Possessing antimicrobial activity; -: Possessing no antimicrobial activity; conditions: Amp (1 mg/ml), 7 μl in agar hole, 16–18 h, 37°C
Experimental: as §1

E. coli (ATCC 25922) = experiment: Antimicrobial activity assay (agar hole diffusion); format: cell-based, Escherichia coli; design: key: +: Possessing antimicrobial activity; -: Possessing no antimicrobial activity; conditions: Amp (1 mg/ml), 7 μl in agar hole, 16–18 h, 37°C
Experimental: as §1

HaCaT cells [3] = experiment: Cytotoxicity of Gefitinib on HaCaT cells; format: cell-based, human; conditions: Gefitinib 1 μM, 24 h; data not shown
HaCaT cells [4] = experiment: Cellular wound healing (scratch) assay, HaCaT; format: cell-based, human; conditions: MMC 10 µg/ml alone, 24 h; vehicle 53.39 ± 10.11%; mean ± S.D., n=9
Experimental: (§2) Cellular wound healing activity assay was performed as previous research. Briefly, human keratinocytes (HaCaT) (KCB 200442YJ) and human skin fibroblasts (HSF) (KCB 200537) were provided by Conservation Genetics CAS Kunming Cell Bank of Kunming Institute of Zoology, the Chinese Academy of Sciences, and cultured in Dulbecco’s modified Eagle’s medium (DMEM, BI, Israel) with 10% FBS (BI, Israel) and penicillin (100 units/ml)–streptomycin (100 units/ml) in a humidified atmosphere of 5% CO2 (37°C). The possible mycoplasma contamination was excluded by the EZ-PCR mycoplasma contamination detection kit (20-700-20, BI). Cell monolayer formation was formed by culturing the HaCaT and HSF (2.5 × 10^5 cells/well) cells in 24-well plates for 12–24 h with serum starvation and then made to the mechanical scratch wound by a sterile pipette tip (Axygen, U.S.A.). After washing with PBS twice to detach dead cells, cells monolayer was then cultured for next periods (from 0 to 24 h) in a serum-free basal medium (500 μl) with the continued presence of OA-GL12. The same volume of DMEM without OA-GL12 was made as vehicle. […] Cell migration activity was expressed as the percentage of the gap relative to the full area of the scratch using ImageJ software (National Institutes of Health, Bethesda, MD, U.S.A.) to evaluate the repair rate of scarification.

HSF cells = experiment: Cellular wound healing (scratch) assay, HSF; format: cell-based, human; conditions: MMC 10 µg/ml alone, 24 h; vehicle 38.96 ± 3.34%; mean ± S.D., n=9
Experimental: as §2

mice = experiment: Acute toxicity assay; format: in vivo; conditions: for Mortality (%): 3 male and 3 female mice, observed 2 weeks
Experimental: Two phases of acute toxicity were performed as previous study. Lethal concentration of OA-GL12 was tested at 5, 10, 25, and 50 μmol/kg by i.p. in mice, while using saline as negative control. The mortalities, toxic effects, and behavioral changes were observed and recorded for 2 weeks.

human erythrocytes = experiment: Hemolytic activity assay; format: cell-based
Experimental: Hemolytic activity assay was performed according to previous research. Briefly, erythrocytes were triply and softly washed with 0.9% normal saline. Then cells were incubated with various concentrations of OA-GL12 for 30 min (37°C), while 0.1% Triton X-100 as maximum hemolysis. The absorbance of supernatant was read at 540 nm after centrifugation with 3000×g for 4 min at room temperature. The numeric data of hemolytic activity (%) was calculated by [(Asample) × 100]/Atriton x-100.

[5] = tested on: full-thickness skin wound mice; conditions: in vivo
Experimental: Adult male mice (22–25 g) from the same generation were purchased from Hunan SJA Laboratory Animal Co., Ltd (Certificate number 43004700043639, China). […] Mice were made full-thickness skin wound models after 7 days’ acclimation. Briefly, mice were anesthetized by intraperitoneal injection (i.p.) with 1% sodium pentobarbital (0.1 ml/20 g body weight). Dorsal hair were shaved by an electric clipper and sterilized with 75% alcohol. Two full-thickness skin wounds (8 × 8 mm) were surgically made on the back. After the surgery, the mice were placed in comfortable cages until they recovered from anesthesia. Nine mice were randomly divided into three groups. […] The left-sided wounds of the two groups were treated with the same volume of normal saline as vehicle, and the last group treated with 1 mg/ml KangFuXin (KFX, the ethanol extract of the American cockroach, Inner Mongolia Jingxin Pharmaceutical Co. Ltd, China, Z15020805) as positive control. Wounds were treated twice daily with samples and photographed at intervals of 2 days.
The condition of wounds was documented; then ImageJ software was used to estimate the wound areas (percentage of residual wound area to initial areas). […]

[6] = DPPH free radical scavenging; format: physicochemical; conditions: 30 min, room temperature, A517
Experimental: 2,2′-azino-bis (3-ethylbenzothiazoline-6-sulphonic acid) (ABTS) and 2,2-diphenyl-1-picrythydrazyl (DPPH)) scavenging activities of OA-GL12 were assessed referring to previous studies. Briefly, a stock solution of ABTS radical was prepared by incubating 2.8 mM potassium persulphate (Sigma–Aldrich, St. Louis, MO, U.S.A.) with 7 mM ABTS in water for no less than 6 h in the dark, and used immediately. The stock solution was diluted 50-fold with double distilled water. Dissolved samples with ultrapure water were added to the diluted stock solution, while the same volume of solvent was used as the blank, and Vitamin C as the positive control. The reaction was in the dark for 30 min. […] Meanwhile, the assay mixture contained 190 μl of 5 × 10^−5 M DPPH radical (Sigma–Aldrich, St. Louis, MO, U.S.A.) dissolved in ethanol and 10 μl of sample solution. The mixture was then incubated in a 96-well microtiter plates at room temperature for 30 min. Subsequently, the absorbance was measured at 517 nm. The free radical scavenging activity (%) was calculated by (Ablank − Asample) × 100/Ablank.

What does the source list for `CC1(C)S[C@@H]2[C@H](NC(=O)[C@H](N)c3ccccc3)C(=O)N2[C@H]1C(=O)O` [Amp, ampicillin]?
Antimicrobial activity (B. subtilis (ATCC 19659)): +; Antimicrobial activity [1]: +; Antimicrobial activity [2]: +; Antimicrobial activity (C. albicans (ATCC 14053)): +; Antimicrobial activity (E. coli (ATCC 25922)): +

With `COc1cc2ncnc(Nc3ccc(F)c(Cl)c3)c2cc1OCCCN1CCOCC1` [Gefitinib] as the molecule, how does the “cytotoxicity on HaCaT cells” value (HaCaT cells [3]) read?
The value was “no obvious cytotoxicity”.

For `CO[C@@]12[C@H](COC(N)=O)C3=C(C(=O)C(C)=C(N)C3=O)N1C[C@@H]1N[C@@H]12` [MMC, mitomycin C], which “healing rate of HaCaT cell scratch” value (HaCaT cells [4]) is on record?
The value was 26.66 ± 4.64%.

And the “scratch healing of HSF cells” value (HSF cells)?
Its value is 22.78 ± 5.22%.

For `CC[C@H](C)[C@H](NC(=O)CNC(=O)[C@H](CO)NC(=O)[C@H](CC(C)C)NC(=O)[C@H](CC(C)C)NC(=O)CN)C(=O)N[C@@H](CC(N)=O)C(=O)N[C@@H](C)C(=O)N[C@@H](CCC(=O)O)C(=O)N[C@@H](Cc1c[nH]c2ccccc12)C(=O)N1CCC[C@H]1C(=O)N[C@@H](CS)C(=O)O` [OA-GL12] (H-GLLSGINAEWPC-OH), which “Mortality (%)” value (mice; 5 μmol/kg i.p.) is on record?
Its value is 0%.

And the “Mortality (%)” value (mice; 10 μmol/kg i.p.)?
Its value is 0%.

What about the “Mortality (%)” value (mice; 25 μmol/kg i.p.) of the same molecule?
Its value is 0%.

What about the “Mortality (%)” value (mice; 50 μmol/kg i.p.) of the same molecule?
Its value is 0%.

What about the “death and abnormal behaviors (tremor, retardation, irritability, piloerection, stiffness of tail)” value (mice; i.p. injection, 2 weeks) of the same molecule?
Its value is “no death and other abnormal behaviors”.

What about the “hemolytic activity on human erythrocytes in vitro” value (human erythrocytes) of the same molecule?
Its value is “negligible hemolytic activity”.

What about the “adverse effects on mouse body weight, general health, or behavior” value [5] of the same molecule?
Its value is “No adverse effects”.

With `O=C1O[C@H]([C@@H](O)CO)C(O)=C1O` [Vitamin C] as the molecule, how does the DPPH scavenging activity ([6]; 0.063 μM) read?
The DPPH scavenging activity was “nearly inactive”.

What about the DPPH scavenging ([6]; 1 μM, mean ± S.D., n=3) of the same molecule?
The DPPH scavenging was 7.71 ± 0.56%.

For Triton X-100, which “Hemolytic ratio (%)” value (human erythrocytes; 0.1% Triton X-100 as maximum hemolysis, 30 min, 37°C, A540) is on record?
Its value is 100%.
